Literature values in US20220356443A1, “PRODUCTION METHOD FOR CEREBRAL ORGANOID” (KEIO UNIVERSITY, priority 2019, published 2022).

Tested on: deposits of amyloid β peptide
Details: relative to thioflavin-T; general statement on the staining reagent

In the case of `CNc1ccc(-c2nc3ccccc3s2)cc1` [BTA-1, 2-(4′-methylaminophenyl)benzothiazole], the “affinity to deposits of amyloid β peptide, higher than that of thioflavin-T” value is given as “about 50 times”.
